Drawing on ChEMBL document CHEMBL5356947, “Mitochondria-targeted biotin-conjugated BODIPYs for cancer imaging and therapy” (RSC Med Chem, 2023), this text covers IC50 and Activity for two compounds.

One assay relates to MDA-MB-231. Nature of the assay: Photocytotoxicity against human MDA-MB-231 cells assessed as inhibition of cell growth incubated for 24 hrs by MTT assay. The following applies: MDA-MB-231, 24 h. It counts as functional, cell-based.
A short description of assay [1]: Photosensitizing ability of the compound in MeOH assessed as singlet oxygen generation at 408 nm measured upto 120 sec by DPBF based assay. It counts as functional.

In general, IC50 refers to the concentration that inhibits the measured activity by half. `C#CCOc1ccc(C2=C3C(C)=C(I)C(C)=[N+]3[B-](F)(F)n3c(C)c(I)c(C)c32)cc1`: the half-inhibitory concentration (IC50) in the assay on MDA-MB-231 is 25.2 nM.
As for `O=C1OC2(c3cc(I)c(O)c(I)c3Oc3c2cc(I)c(O)c3I)c2c(Cl)c(Cl)c(Cl)c(Cl)c21`, the Activity in assay [1] was 0.75.
